Data set [1] deals with T1, human Branched Chain Amino Acid Aminotransferase cytosolic form (hBCATc) (Homo sapiens, UniProt P54687).
T1 construct: inferred from purification on a Ni-charged chelating column with imidazole elution; made in house; host or cells: E. coli BL21(DE3)
T1 sequence (P54687 1-386): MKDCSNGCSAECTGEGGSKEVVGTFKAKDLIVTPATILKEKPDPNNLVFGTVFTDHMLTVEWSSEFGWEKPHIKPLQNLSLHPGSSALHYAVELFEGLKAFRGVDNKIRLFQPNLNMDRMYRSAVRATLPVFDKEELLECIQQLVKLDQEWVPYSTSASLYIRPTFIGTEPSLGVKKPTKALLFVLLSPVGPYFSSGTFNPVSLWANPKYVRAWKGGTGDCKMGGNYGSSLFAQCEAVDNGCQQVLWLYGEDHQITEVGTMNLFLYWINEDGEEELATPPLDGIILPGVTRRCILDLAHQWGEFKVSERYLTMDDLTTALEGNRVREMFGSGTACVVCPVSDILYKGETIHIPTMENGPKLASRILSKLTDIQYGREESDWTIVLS
In words: In vitro coupled enzyme assay, human BCAT cytosolic form. It is filed as biochemical. The note with it: inhibition of recombinant human BCATc; coupled glutamate dehydrogenase/NADH assay, 37° C., pH 7.8; read-out: rhBCATc. On the procedure: (§1) In vitro enzyme assay: human Branched Chain Amino Acid Aminotransferase cytosolic form (hBCATc) and mitochondrial form (hBCATm) as well as rat BCAT cytosolic form were assayed at 37° C. in 25 mM phosphate buffer pH 7.8. In addition, 2 mM DTT and 12.5 mM EDTA were added to the assay mixture. A coupling enzyme assay was used to monitor the production of glutamate. The formation of NADH from NAD+at […] was followed on a 96-well plate Molecular Devices plate reader. The following components were used in this coupled assay: 4 mM ADP, 1 mM NAD+, 750 μM L-Leucine, 500 μM a-ketoglutarate, 10 μM pyridoxal phosphate, 1 unit glutamate dehydrogenase, and 1.25 μg of the appropriate BCAT enzyme. Inhibitions by compounds were assayed by adding various concentrations to this coupled assay procedure as a DMSO stock up to a 5% v/v DMSO/buffer ratio.
(§2) Enzyme Preparation: humanBCATc and ratBCATc were expressed in BL21(DE3) cells. A growing culture of cells was induced with 1 mM IPTG at room temperature overnight. These cells were harvested by centrifugation at 10,000 g for 20 minutes. The supernatant was discarded, and the cells were stored at −80° C. until needed. The protein was purified by the following method. The cell paste was resuspended in extraction buffer (0.1 M phosphate, pH 8.0, with 0.01 M Tris-HCL and 5 mM TCEP and then lysed on a French Press at 1000 psi. The lysate was centrifuged at 10,000 g for 15 minutes, and the pellet was discarded. The supernatant was loaded onto a Hitrap Chelating column previously charged with 0.1 M NiSO4 and washed with 3 to 4 column volumes of extraction buffer. The column was then washed with 0.01 Tris, pH 7.5, 10% glycerol, 150 mM NaCl, 5 mM TCEP for two column volumes. The column was then further washed with two column volumes of 0.1 M phosphate, pH 6.0, 0.01 M Tris, 10% glycerol, and 750 mM NaCl. Finally, the column was washed with two column volumes of the same buffer plus 50 mM imidazole. The BCAT enzyme was then eluted with the same buffer but with 350 mM imidazole. The eluant was then dialyzed overnight against 10 mM phosphate buffer pH 8.0, 10% glycerol, and 5 mM TCEP. The dialyzed protein was then loaded onto a Q-sepharose column and eluted using a salt gradient. Active fractions were collected and further purified on a Superose-12 column to yield pure BCAT protein.

Data set [2] concerns the target T2, rat BCAT cytosolic form (rrBCATc) (Rattus norvegicus, UniProt P54690).
T2 construct: inferred from purification on a Ni-charged chelating column with imidazole elution; made in house; host or cells: E. coli BL21(DE3)
T2 sequence (P54690 1-411): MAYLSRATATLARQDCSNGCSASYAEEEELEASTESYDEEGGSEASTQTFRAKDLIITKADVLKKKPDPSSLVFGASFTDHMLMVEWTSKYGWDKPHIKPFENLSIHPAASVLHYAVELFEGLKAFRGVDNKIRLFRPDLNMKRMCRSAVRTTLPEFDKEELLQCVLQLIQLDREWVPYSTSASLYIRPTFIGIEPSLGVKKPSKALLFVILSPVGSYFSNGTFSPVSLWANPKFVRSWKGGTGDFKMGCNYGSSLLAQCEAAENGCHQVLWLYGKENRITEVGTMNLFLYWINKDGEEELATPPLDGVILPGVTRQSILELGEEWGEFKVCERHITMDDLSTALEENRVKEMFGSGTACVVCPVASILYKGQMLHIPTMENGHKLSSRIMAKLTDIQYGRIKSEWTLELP
The data set is described as follows: In vitro coupled enzyme assay, rat BCAT cytosolic form. In kind it is biochemical. Particulars: inhibition of recombinant rat BCATc; coupled glutamate dehydrogenase/NADH assay, 37° C., pH 7.8. As to the method:
as §1, §2

What is called melting point is the temperature, or range, at which the solid turns liquid. `Cc1cccc(S(=O)(=O)Nc2ccc(C(=O)NNS(=O)(=O)c3ccccc3)cc2)c1` (hydrate or solvate) [Example 17, Benzoic acid, 4-[[(3-methylphenyl)sulfonyl]amino]-, 2-(phenylsulfonyl)hydrazide] returned a melting point of 219 to 219.7 °C.
Regarding `O=C(NNS(=O)(=O)c1ccccc1)c1ccc([N+](=O)[O-])cc1` [Example 1, Benzoic acid, 4-nitro-2-(phenylsulfonyl)hydrazide], the melting point was 193 to 195 °C. Further, the IC50 in data set [1] is 40 µM.
For `O=C(NNS(=O)(=O)c1ccccc1)c1ccc(NS(=O)(=O)c2c(Cl)cc(Cl)cc2Cl)cc1` [Example 3, Benzoic acid, 4-[[(2,4,6trichlorophenyl)sulfonyl]amino]-, 2-(phenylsulfonyl)hydrazide], the melting point was 195.7 to 196.2 °C. Also, in data set [1], the IC50 amounted to 0.7 µM.
In the case of `O=C(NNS(=O)(=O)c1ccccc1)c1ccc(NS(=O)(=O)c2ccc(C(F)(F)F)cc2)cc1` [Example 4, Benzoic acid, 4-[[[4-(trifluoromethyl)phenyl]sulfonyl]amino]-, 2-(phenylsulfonyl)hydrazide], the melting point lay within 98.5 to 99.4 °C. For the same compound, the IC50 in data set [1] was 6 µM.
The matching figures for `O=C(NNS(=O)(=O)c1ccccc1)c1ccc(NS(=O)(=O)c2ccc(Oc3ccccc3)cc2)cc1` [Example 6, Benzoic acid, 4-[[[(4-phenoxy)benzene]sulfonyl]amino]-, 2-(phenylsulfonyl)hydrazide]: 94.1 to 94.9 °C and 3 µM.
`Cc1cccc(Cl)c1S(=O)(=O)Nc1ccc(C(=O)NNS(=O)(=O)c2ccccc2)cc1` [Example 7, Benzoic acid, 4-[[(2-chloro-6-methylphenyl)sulfonyl]amino]-, 2-(phenylsulfonyl)hydrazide] had a melting point of 214.4 to 215.6 °C.
In turn, `CS(=O)(=O)Nc1ccc(C(=O)NNS(=O)(=O)c2ccccc2)cc1` [Example 8, Benzoic acid, 4-[(methylsulfonyl)amino]-, 2-(phenylsulfonyl)hydrazide] registered a melting point of 185.6 to 186.5 °C. Moreover, in data set [1], the IC50 came to 7 µM.
The matching figures for `Cc1ccc(S(=O)(=O)Nc2ccc(C(=O)NNS(=O)(=O)c3ccccc3)cc2)cc1` [Example 9, Benzoic acid, 4-[[(4-methylphenyl)sulfonyl]amino]-, 2-(phenylsulfonyl)hydrazide]: 191.6 to 192.4 °C and 3.8 µM.
The matching figures for `CCc1ccc(S(=O)(=O)Nc2ccc(C(=O)NNS(=O)(=O)c3ccccc3)cc2)cc1` [Example 10, Benzoic acid, 4-[[(4-ethylphenyl)sulfonyl]amino]-, 2-(phenylsulfonyl)hydrazide]: 142.3 to 142.9 °C and 13 µM.
Take `CCCc1ccc(S(=O)(=O)Nc2ccc(C(=O)NNS(=O)(=O)c3ccccc3)cc2)cc1` [Example 11, Benzoic acid, 4-[[(4-n-propylphenyl)sulfonyl]amino]-, 2-(phenylsulfonyl)hydrazide]: in data set [1], the IC50 was 7.5 µM.
In the case of `CCCCc1ccc(S(=O)(=O)Nc2ccc(C(=O)NNS(=O)(=O)c3ccccc3)cc2)cc1` [Example 12, Benzoic acid, 4-[[(4-n-butylphenyl)sulfonyl]amino]-, 2-(phenylsulfonyl)hydrazide], the melting point lay within 76 to 77.1 °C. Also, the IC50 in data set [1] was found to be 4.6 µM.
For `O=C(NNS(=O)(=O)c1ccccc1)c1ccc(NS(=O)(=O)c2ccc(F)cc2)cc1` [Example 14, Benzoic acid, 4-[[(4-fluorophenyl)sulfonyl]amino]-, 2-(phenylsulfonyl)hydrazide], in that order: 183.5 to 185 °C and 4.8 µM.
For `O=C(NNS(=O)(=O)c1ccccc1)c1ccc(NS(=O)(=O)c2ccccc2)cc1` [Example 15], in that order: 140.8 to 144.5 °C and 4.9 µM.
On to `Cc1cccc(S(=O)(=O)Nc2ccc(C(=O)NNS(=O)(=O)c3ccccc3)cc2)c1` [Example 17, Benzoic acid, 4-[[(3-methylphenyl)sulfonyl]amino]-, 2-(phenylsulfonyl)hydrazide], for which the IC50 in data set [1] is 2.3 µM.
Turning to `Cc1cccc(S(=O)(=O)NNC(=O)c2ccc(Oc3ccccc3)cc2)c1` [Example 18, 4-Phenoxybenzoic acid, 2-[(3-methyl)phenylsulfonyl]hydrazide], the IC50 in data set [2] stood at 1.2 µM; in data set [1] it was 9.5 µM.
The matching figures for `O=C(NNS(=O)(=O)c1cccc(Br)c1)c1ccc(Oc2ccccc2)cc1` [Example 19, 4-Phenoxybenzoic acid, 2-[3-bromophenylsulfonyl]hydrazide]: 2.8 µM and 28 µM.
As for `O=C(NNS(=O)(=O)c1ccccc1Cl)c1ccc(Oc2ccccc2)cc1` [Example 20, 4-Phenoxybenzoic acid, 2-[2-chlorophenylsulfonyl]hydrazide], the IC50 came to 5.9 µM in data set [2] and 35 µM in data set [1].
For the compound `O=C(NNS(=O)(=O)c1ccccc1OC(F)(F)F)c1ccc(Oc2ccccc2)cc1` [Example 21, 4-Phenoxybenzoic acid, 2-[2-(trifluoromethoxy)phenylsulfonyl]hydrazide], the IC50 in data set [2] was determined as 2.9 µM; in data set [1] it was 28 µM.
`Cc1ccc(S(=O)(=O)NNC(=O)c2ccc(Oc3ccccc3)cc2)cc1[N+](=O)[O-]` [Example 22, 4-Phenoxybenzoic acid, 2-[(4-methyl-3-nitro)phenylsulfonyl]hydrazide]: the IC50 in data set [1] turned out to be 110 µM.
For `O=C(NNS(=O)(=O)c1ccccc1C(F)(F)F)c1ccc(Oc2ccccc2)cc1` [Example 23, 4-Phenoxybenzoic acid, 2-[2-trifluorophenylsulfonyl]hydrazide], the figures for the IC50 in data set [2] and in data set [1] were 0.43 µM and 17 µM, respectively.
Take `O=C(NNS(=O)(=O)c1ccccc1)c1cccc(Oc2ccccc2)c1` [Example 26, 3-Phenoxybenzoic acid, 2-(phenylsulfonyl)hydrazide]: the IC50 came out at 2.2 µM in data set [2] and 34 µM in data set [1].
For `O=C(NNS(=O)(=O)c1ccccc1)c1ccccc1Oc1ccccc1` [Example 27, 2-Phenoxybenzoic acid, 2-(phenylsulfonyl)hydrazide], the melting point was 149 to 150 °C. In data set [1], the IC50 was found to be 50 µM.
For `COc1ccc(S(=O)(=O)Nc2ccc(C(=O)NNS(=O)(=O)c3ccccc3)cc2)cc1` [Example 30, Benzoic acid, 4-[[(4-methoxyphenyl)sulfonyl]amino]-, 2-(phenylsulfonyl)hydrazide], in that order: 164.3 to 164.9 °C and 2.8 µM.
As to `O=C(NNS(=O)(=O)c1ccccc1)c1ccc(I)cc1` [Example 31, 4-Iodo-benzoic acid, 2-(phenylsulfonyl)hydrazide], the melting point is 193 to 195 °C.
In the case of `O=C(NNS(=O)(=O)c1ccccc1)c1ccc(C#CCC2CCCCC2)cc1` [Example 34, 4-(3-Cyclohexyl-1-propynyl)-benzoic acid, 2-(phenylsulfonyl)hydrazide], the melting point is 180 to 182 °C. The IC50 in data set [1] was 32.3 µM.
